The text below walks through data of ChEMBL document CHEMBL5465560, “Selectivity Literature for EUbOPEN Chemogenomic Library” (2024).

For experiment [1], the target named is T1, Aurora kinase A (Homo sapiens) (UniProt O14965).
T1 sequence (whole entry): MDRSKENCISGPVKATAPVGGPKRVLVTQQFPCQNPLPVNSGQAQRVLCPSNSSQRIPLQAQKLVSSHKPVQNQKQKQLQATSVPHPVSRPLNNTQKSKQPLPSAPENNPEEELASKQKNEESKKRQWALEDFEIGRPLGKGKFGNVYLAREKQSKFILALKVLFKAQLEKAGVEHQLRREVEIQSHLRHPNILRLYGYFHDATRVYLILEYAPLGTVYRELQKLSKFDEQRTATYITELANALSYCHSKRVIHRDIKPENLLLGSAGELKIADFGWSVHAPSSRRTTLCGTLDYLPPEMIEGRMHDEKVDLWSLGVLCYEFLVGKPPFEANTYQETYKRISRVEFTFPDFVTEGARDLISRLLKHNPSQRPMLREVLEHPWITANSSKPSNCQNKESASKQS
Description: Selectivity interaction (Kinase panel (Z-LYTE Assay)) EUB0001632a STK6. The conditions noted are these: at 10 µM.

The target of experiment [2] is T2, Discoidin domain-containing receptor 2 (Homo sapiens) (UniProt Q16832).
T2 sequence (whole entry): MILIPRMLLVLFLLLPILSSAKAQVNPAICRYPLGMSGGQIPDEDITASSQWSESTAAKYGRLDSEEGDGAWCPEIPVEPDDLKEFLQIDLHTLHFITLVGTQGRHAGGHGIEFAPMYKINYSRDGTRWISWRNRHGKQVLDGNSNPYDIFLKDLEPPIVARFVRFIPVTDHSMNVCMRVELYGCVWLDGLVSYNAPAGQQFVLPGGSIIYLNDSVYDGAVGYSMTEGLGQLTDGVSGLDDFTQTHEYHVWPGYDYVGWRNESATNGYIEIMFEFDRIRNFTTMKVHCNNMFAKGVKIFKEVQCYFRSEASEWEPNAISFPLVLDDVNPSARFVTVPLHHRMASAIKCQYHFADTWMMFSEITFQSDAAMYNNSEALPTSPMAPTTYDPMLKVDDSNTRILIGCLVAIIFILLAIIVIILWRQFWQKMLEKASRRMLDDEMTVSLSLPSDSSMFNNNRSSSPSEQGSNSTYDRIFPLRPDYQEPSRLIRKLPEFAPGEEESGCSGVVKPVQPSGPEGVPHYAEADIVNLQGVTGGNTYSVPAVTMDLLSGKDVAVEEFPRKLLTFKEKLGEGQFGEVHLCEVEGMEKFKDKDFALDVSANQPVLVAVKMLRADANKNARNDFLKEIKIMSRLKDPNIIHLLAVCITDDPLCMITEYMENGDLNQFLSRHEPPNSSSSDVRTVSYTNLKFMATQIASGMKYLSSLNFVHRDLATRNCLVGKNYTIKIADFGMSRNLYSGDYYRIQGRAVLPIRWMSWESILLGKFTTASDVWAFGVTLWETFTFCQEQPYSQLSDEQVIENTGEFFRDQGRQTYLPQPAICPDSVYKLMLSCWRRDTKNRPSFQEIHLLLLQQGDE
Put plainly: Selectivity interaction (Ambit KINOMEscan and KiNATiv profiling in Jurkat cells) EUB0000090b DDR2. It is filed as cell-based. The conditions noted are these: at 1 µM.

Experiment [3] has as its target Mitogen-activated protein kinase kinase kinase 10 (Homo sapiens) (UniProt Q02779). Put plainly: Selectivity interaction (KinomeScan (DiscoverX)) EUB0000229b MAP3K10. The following applies: at 10 µM.
Experiment [4] addresses Serine/threonine-protein kinase SIK2 (Homo sapiens) (UniProt Q9H0K1). Put plainly: Selectivity interaction (KinomeScan (DiscoverX)) EUB0000655a SIK2. The conditions noted are these: at 10 µM.
In experiment [5] the target is T3, Mitogen-activated protein kinase kinase kinase 6 (Homo sapiens) (UniProt O95382).
T3 sequence (whole entry): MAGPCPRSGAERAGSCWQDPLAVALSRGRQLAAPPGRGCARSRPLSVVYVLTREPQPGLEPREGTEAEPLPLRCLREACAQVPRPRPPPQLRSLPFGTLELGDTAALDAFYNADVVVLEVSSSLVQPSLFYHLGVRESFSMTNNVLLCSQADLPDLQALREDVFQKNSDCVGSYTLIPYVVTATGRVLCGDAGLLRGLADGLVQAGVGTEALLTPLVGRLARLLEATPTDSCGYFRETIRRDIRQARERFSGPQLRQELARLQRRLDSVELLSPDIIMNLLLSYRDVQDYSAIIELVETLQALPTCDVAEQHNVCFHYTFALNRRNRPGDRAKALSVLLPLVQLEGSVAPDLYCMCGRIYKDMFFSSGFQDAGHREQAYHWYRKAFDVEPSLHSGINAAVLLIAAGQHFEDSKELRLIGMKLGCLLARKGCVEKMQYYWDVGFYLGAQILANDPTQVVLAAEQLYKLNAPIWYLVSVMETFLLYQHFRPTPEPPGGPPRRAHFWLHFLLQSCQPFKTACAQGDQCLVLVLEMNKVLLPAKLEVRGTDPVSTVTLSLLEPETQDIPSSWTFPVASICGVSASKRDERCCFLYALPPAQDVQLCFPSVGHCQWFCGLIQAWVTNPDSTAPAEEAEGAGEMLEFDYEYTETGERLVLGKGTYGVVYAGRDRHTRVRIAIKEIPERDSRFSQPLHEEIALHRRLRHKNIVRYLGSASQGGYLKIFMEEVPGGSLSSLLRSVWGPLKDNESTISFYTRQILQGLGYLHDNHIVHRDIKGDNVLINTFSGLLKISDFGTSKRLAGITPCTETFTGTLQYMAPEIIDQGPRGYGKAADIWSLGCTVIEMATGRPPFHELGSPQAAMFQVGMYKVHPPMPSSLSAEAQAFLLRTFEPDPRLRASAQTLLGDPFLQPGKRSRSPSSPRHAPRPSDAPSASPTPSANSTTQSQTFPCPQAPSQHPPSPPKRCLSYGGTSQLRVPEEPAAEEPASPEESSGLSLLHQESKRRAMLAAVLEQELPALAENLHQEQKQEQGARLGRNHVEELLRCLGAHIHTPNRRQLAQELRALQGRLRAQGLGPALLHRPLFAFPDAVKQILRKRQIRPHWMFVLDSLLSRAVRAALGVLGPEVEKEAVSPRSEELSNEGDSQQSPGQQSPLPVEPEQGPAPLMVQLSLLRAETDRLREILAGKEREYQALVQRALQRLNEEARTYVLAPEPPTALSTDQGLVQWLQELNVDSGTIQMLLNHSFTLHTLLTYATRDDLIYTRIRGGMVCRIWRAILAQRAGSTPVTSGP
Description: Selectivity interaction (ActivX KiNativ screen (kinase selectivity in THP-1 cell lysates)) EUB0000639a MAP3K6. It counts as subcellular. The following applies: lysate, at 1 µM.

Experiment [6] addresses Protein kinase C gamma type (Homo sapiens) (UniProt P05129). Description: Selectivity interaction (Millipore kinase profiler) EUB0000124b PRKCG. The conditions noted are these: at 10 µM.
Experiment [7] concerns the target Serine/threonine-protein kinase Nek4 (Homo sapiens) (UniProt P51957). Put plainly: Selectivity interaction (KinomeScan (DiscoverX)) EUB0000595a NEK4. The conditions noted are these: at 10 µM.

Chain of Serine/threonine-protein kinase Nek4 (Homo sapiens) (P51957 whole entry, looked up): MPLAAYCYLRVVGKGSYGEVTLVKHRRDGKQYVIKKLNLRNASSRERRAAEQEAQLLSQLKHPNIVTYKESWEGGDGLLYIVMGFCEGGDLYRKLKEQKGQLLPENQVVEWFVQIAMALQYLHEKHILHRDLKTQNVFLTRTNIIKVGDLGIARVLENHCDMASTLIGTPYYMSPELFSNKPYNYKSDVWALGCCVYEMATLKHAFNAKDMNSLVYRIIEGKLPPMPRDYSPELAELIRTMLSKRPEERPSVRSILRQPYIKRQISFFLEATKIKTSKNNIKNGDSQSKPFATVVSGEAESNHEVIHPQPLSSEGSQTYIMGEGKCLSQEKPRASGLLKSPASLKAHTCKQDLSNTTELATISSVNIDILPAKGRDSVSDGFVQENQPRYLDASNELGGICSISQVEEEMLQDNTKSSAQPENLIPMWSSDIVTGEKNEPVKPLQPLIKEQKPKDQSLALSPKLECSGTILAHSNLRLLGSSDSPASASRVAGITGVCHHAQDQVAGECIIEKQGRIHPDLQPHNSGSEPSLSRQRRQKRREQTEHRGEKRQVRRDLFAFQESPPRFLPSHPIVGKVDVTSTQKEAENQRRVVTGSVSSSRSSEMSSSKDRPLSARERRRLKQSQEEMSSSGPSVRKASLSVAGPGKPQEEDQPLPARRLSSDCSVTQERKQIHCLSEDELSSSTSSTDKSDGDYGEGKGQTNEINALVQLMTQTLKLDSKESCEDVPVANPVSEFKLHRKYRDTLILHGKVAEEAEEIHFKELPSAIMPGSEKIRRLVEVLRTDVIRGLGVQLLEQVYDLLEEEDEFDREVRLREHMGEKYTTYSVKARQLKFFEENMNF
Chain of Mitogen-activated protein kinase kinase kinase 10 (Homo sapiens) (Q02779 whole entry, looked up): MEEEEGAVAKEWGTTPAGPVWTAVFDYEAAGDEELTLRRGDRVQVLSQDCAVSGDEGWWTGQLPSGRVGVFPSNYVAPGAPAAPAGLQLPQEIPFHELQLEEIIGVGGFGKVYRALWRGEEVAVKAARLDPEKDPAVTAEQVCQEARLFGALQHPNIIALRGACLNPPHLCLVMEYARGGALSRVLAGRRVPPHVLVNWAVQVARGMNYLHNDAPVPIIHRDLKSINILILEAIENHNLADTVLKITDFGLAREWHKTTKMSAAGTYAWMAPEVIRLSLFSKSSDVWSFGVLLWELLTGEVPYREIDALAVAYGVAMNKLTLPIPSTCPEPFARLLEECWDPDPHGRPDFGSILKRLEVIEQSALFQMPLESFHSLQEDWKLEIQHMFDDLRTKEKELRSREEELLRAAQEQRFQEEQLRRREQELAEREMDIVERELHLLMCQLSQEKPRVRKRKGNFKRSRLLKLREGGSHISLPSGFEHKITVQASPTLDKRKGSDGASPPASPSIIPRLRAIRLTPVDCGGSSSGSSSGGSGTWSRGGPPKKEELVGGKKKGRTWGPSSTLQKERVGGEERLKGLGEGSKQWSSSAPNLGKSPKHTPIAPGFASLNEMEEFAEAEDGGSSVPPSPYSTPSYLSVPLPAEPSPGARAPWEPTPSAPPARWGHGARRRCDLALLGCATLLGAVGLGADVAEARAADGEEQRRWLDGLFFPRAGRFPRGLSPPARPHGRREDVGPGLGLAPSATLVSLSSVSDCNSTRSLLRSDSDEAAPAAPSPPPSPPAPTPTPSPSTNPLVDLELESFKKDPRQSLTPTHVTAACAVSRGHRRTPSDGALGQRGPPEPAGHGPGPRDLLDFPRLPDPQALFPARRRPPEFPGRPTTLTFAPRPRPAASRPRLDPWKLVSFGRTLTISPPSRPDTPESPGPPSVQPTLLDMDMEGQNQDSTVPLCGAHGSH
Chain of Serine/threonine-protein kinase SIK2 (Homo sapiens) (Q9H0K1 whole entry, looked up): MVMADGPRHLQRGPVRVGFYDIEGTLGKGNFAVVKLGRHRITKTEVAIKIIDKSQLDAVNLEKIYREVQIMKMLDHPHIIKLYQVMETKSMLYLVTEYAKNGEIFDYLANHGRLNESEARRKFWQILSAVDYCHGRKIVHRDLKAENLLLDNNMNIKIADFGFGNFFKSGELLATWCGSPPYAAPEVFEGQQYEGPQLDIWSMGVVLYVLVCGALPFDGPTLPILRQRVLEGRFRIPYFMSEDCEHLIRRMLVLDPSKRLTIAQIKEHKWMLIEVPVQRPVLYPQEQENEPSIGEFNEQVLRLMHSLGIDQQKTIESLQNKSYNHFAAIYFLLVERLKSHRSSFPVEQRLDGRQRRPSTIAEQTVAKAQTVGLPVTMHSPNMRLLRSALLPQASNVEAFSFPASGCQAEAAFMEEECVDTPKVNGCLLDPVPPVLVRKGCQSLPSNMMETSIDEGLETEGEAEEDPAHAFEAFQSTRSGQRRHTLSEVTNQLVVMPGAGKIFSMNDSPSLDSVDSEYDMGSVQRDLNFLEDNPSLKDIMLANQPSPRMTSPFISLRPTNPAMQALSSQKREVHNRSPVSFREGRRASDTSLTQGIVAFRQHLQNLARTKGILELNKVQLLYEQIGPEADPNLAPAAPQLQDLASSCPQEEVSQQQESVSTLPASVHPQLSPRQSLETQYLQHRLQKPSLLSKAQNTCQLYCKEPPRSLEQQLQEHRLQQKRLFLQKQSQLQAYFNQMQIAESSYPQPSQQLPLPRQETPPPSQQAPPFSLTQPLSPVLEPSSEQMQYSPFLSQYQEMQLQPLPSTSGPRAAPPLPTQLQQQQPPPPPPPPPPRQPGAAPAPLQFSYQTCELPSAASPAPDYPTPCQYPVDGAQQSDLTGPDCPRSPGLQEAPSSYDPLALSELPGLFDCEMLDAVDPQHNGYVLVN

In turn, `Cn1cc(-n2cnc3c(NCc4nc5cc(Cl)c(Cl)cc5[nH]4)nc(N4CCOCC4)nc32)cn1` showed a % of control in experiment [1] of 9.63%. Compound `CN(C)C/C=C/C(=O)Nc1ccc(C(=O)N2CCCC(Nc3ncc(Cl)c(-c4c[nH]c5ccccc45)n3)C2)cc1` (configuration not stated) displayed a % of control in experiment [2] of 100%. Take `COc1cc(N(C)c2ccnc3ccc(C(F)(F)F)cc23)cc(OC)c1OC`: in experiment [3], the % binding stood at 100%. `CN(C)CCOc1ccc(-c2nc(-c3ccncc3)c(-c3ccc4c(c3)CC/C4=N\O)[nH]2)cc1`: the % of control in experiment [4] amounted to 91%. Turning to `CC[C@@H]1[C@H](F)C(=O)N[C@@H]1COc1nccc2cc(C(N)=O)c(OC)cc12` [ZIMLOVISERTIB], the % of inhibition in experiment [5] was -16.4%. As for `CC(=O)Nc1cccc(-n2c(=O)n(C3CC3)c(=O)c3c(Nc4ccc(I)cc4F)n(C)c(=O)c(C)c32)c1`, the % of control in experiment [6] was 107%. In experiment [7], `COCC(=O)NC/C=C/c1ccc2ncnc(Nc3ccc(Oc4ccc(C)nc4)c(C)c3)c2c1` [CP-724714] registered a % of control of 100%.
